Common to all, as to type: cell-based
The target of one test is T1, androgen receptor (AR) (Homo sapiens, UniProt P10275).
T1 construct: of the androgen receptor (AR, amino acids 667-919); expressed in transfected cells; host or cells: CHO K1
T1 sequence (P10275 667-919): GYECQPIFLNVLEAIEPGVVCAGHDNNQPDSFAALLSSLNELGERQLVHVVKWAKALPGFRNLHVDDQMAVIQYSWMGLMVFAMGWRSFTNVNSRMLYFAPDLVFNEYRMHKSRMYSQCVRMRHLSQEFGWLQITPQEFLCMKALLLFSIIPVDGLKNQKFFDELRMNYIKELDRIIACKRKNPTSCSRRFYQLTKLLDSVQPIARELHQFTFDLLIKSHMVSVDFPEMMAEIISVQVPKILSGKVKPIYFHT
Put plainly: Cellular in vitro assay, GAL4-AR chimera luciferase reporter in CHO K1 cells (selectivity). As to conditions: GAL4-AR ligand-binding domain chimera, agonist dihydrotestosterone. The text has this:
(§1) 1. Cellular In Vitro Assay to Determine the Inhibitory MR Activity and MR Selectivity Compared with Other Steroid Hormone Receptors
(§2) Antagonists of the human mineralocorticoid receptor (MR) are identified, and the efficacy of the compounds described herein is quantified with the aid of a recombinant cell line. The cell is originally derived from a hamster ovary epithelial cell (Chinese Hamster Ovary, CHO K1, ATCC: American Type Culture Collection, VA 20108, USA).
(§3) An established chimera system in which the ligand-binding domains of human steroid hormone receptors are fused to the DNA-binding domain of the yeast transcription factor GAL4 is used in this CHO K1 cell line. The GAL4-steroid hormone receptor chimeras produced in this way are cotransfected and stably expressed with a reporter construct in the CHO cells.
(§4) To generate the GAL4-steroid hormone receptor chimeras, the GAL4 DNA-binding domain (amino acids 1-147) from the vector pFC2-dbd (from Stratagene) is cloned with the PCR-amplified ligand-binding domains of the mineralocorticoid receptor (MR, amino acids 734-985), of the glucocorticoid receptor (GR, amino acids 443-777), of the progesterone receptor (PR, amino acids 680-933) and of the androgen receptor (AR, amino acids 667-919) into the vector pIRES2 (from Clontech). The reporter construct, which contains five copies of the GAL4 binding site upstream of a thymidine kinase promoter, leads to expression of firefly luciferase (Photinus pyralis) after activation and binding of the GAL4-steroid hormone receptor chimeras by the respective specific agonists aldosterone (MR), dexamethasone (GR), progesterone (PR) and dihydrotestosterone (AR).
(§5) The MR, GR, PR and AR cells are plated out in medium (Optimem, 2.5% FCS, 2 mM glutamine, 10 mM HEPES) in 96-well (or 384- or 1536-well) microtiter plates the day before the assay, and are kept in a cell incubator (96% air humidity, 5% v/v CO2, 37° C.). On the day of the assay, the substances to be tested are taken up in the abovementioned medium and added to the cells. About 10 to 30 minutes after addition of the test substances, the respective specific agonists of the steroid hormone receptors are added. After a further incubation time of 5 to 6 hours, the luciferase activity is measured with the aid of a video camera. The relative light units measured as a function of the substance concentration give a sigmoidal stimulation curve. The IC50 values are calculated with the aid of the computer program GraphPad PRISM (Version 3.02).
(A reporter such as luciferase makes a cellular process visible.)

The target in test [1] is T2, human mineralocorticoid receptor (MR) (Homo sapiens, UniProt P08235).
T2 construct: expressed in transfected cells; host or cells: CHO K1
T2 sequence (P08235 734-984 limits assumed): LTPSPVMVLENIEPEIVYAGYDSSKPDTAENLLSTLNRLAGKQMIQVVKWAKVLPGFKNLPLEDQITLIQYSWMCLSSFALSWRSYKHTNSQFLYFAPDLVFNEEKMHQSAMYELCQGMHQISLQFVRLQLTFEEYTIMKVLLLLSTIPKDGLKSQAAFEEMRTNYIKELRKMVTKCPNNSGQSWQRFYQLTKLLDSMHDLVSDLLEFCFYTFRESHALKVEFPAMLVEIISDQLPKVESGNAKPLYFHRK
Put plainly: Cellular in vitro assay, GAL4-MR chimera luciferase reporter in CHO K1 cells (inhibitory MR activity). As to conditions: GAL4-MR ligand-binding domain chimera, agonist aldosterone.
Source text: as §1, §2, §3, §4, §5

Test [2] has as its target T3, progesterone receptor (PR) (Homo sapiens, UniProt P06401).
T3 construct: of the progesterone receptor (PR, amino acids 680-933); expressed in transfected cells; host or cells: CHO K1
T3 sequence (P06401 680-933): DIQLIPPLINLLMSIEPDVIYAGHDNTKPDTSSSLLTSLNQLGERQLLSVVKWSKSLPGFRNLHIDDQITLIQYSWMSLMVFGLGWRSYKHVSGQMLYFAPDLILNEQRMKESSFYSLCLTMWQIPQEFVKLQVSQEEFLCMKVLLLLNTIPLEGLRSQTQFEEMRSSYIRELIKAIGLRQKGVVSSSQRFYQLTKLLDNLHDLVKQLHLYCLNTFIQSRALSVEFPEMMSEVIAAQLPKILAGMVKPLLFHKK
Nature of the test: Cellular in vitro assay, GAL4-PR chimera luciferase reporter in CHO K1 cells (selectivity). As to conditions: GAL4-PR ligand-binding domain chimera, agonist progesterone.
Source text: as §1, §2, §3, §4, §5

Test [3] deals with T4, glucocorticoid receptor (GR) (Homo sapiens, UniProt P04150).
T4 construct: of the glucocorticoid receptor (GR, amino acids 443-777); expressed in transfected cells; host or cells: CHO K1
T4 sequence (P04150 443-777): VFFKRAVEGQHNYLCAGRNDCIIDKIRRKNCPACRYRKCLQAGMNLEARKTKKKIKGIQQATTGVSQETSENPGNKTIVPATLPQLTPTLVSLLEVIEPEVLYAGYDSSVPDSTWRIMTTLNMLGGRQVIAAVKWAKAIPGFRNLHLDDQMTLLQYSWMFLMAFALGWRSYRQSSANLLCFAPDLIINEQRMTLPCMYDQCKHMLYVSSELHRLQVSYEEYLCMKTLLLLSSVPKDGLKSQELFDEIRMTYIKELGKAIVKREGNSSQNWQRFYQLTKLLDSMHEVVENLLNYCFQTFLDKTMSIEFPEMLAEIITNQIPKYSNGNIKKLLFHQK
Put plainly: Cellular in vitro assay, GAL4-GR chimera luciferase reporter in CHO K1 cells (selectivity). Conditions: GAL4-GR ligand-binding domain chimera, agonist dexamethasone.
Source text: as §1, §2, §3, §4, §5

This note sets out measurements from patent US20110183928A1 (BAYER SCHERING PHARMA AKTIENGESELLSCHAFT, priority 2008, published 2011).

Turning to `CCc1cccc2c(C(CCCC#N)c3ccc(C(F)(F)F)cc3)c[nH]c12` (single isomer, unassigned) [Example 4-1, 5-(7-Ethyl-1H-indol-3-yl)-5-[4-(trifluoromethyl)phenyl]pentanenitrile], the IC50 is 2000 nM at androgen receptor (AR), 140 nM in test [1], 1.74 µM in test [2] and 2340 nM in test [3].
For `CCc1cccc2c(C(CCC#N)c3ccc4ccccc4c3)c[nH]c12` (stereo not shown) [Example 34], the IC50 on androgen receptor (AR) amounted to 4200 nM; in test [1] it was 90 nM; in test [2], 3.35 µM; in test [3], 390 nM.
For `Cc1cccc2c(C(CCCC#N)c3ccc(C(F)(F)F)cc3)c[nH]c12` (single isomer, unassigned) [Example 8-1, 5-(7-Methyl-1H-indol-3-yl)-5-[4-(trifluoromethyl)phenyl]pentanenitrile] the same measures were 1530 nM, 200 nM, 2.71 µM and 5100 nM.
As for `CS(=O)(=O)Nc1cccc2c(C(CCC#N)c3ccc(C(F)(F)F)cc3)c[nH]c12` (single isomer, unassigned) [Example 17-1], the IC50 was 2270 nM at androgen receptor (AR), 20 nM in test [1], 4.5 µM in test [2] and 2210 nM in test [3].
As to `CCc1cccc2c(C(CCCO)c3ccc(C(F)(F)F)cc3)c[nH]c12` (single isomer, unassigned) [Example 3-1, 4-(7-Ethyl-1H-indol-3-yl)-4-[4-(trifluoromethyl)phenyl]butan-1-ol], the IC50 came to 3650 nM at androgen receptor (AR), 420 nM in test [1], 5.87 µM in test [2] and 6470 nM in test [3].
Take `CS(=O)(=O)Nc1cccc2c(C(CCO)c3ccc(C(F)(F)F)cc3)c[nH]c12` (stereo not shown) [Example 16, N-(3-{3-Hydroxy-1-[4-(trifluoromethyl)phenyl]propyl}-1H-indol-7-yl)methanesulfonamide]: the figures for the IC50 in test [1] and in test [3] were 330 nM and 700 nM, respectively.

By IC50 is commonly meant the concentration that inhibits the measured activity by half. High values mean weaker potency in that assay, low ones greater potency in that assay.
